{"source": "patent US10584111B2", "about": "“4-(3-cyanophenyl)-6-pyridinylpyrimidine mGlu5 modulators” (Heptares Therapeutics Limited, priority 2013, dated 2020)", "system": "CD-1 mice", "assay": "In vivo efficacy test - marble burying", "set-up": "species or system mouse", "details": "male CD-1 mice, 10 and 30 mg/kg po, dosed 30 min prior to test; doses tested 1, 3, 10 and 30 mg/kg; one-way ANOVA with Dunnett's post-hoc test", "data": [{"compound": "N#Cc1cc(Cl)cc(-c2cc(-c3ccc(F)cn3)ncn2)c1", "note": "[Example 17, 3-chloro-5-[6-(5-fluoropyridin-2-yl)pyrimidin-4-yl]benzonitrile]", "values": [{"measurement": "number of marbles buried versus vehicle group", "result": "statistically significant decrease in the number of marbles buried"}]}]}
